Results published in BigSolDB 2.1.

Settings: in water

SMILES	solubility (mole fraction) (283.15 K)	solubility (mole fraction) (288.15 K)	solubility (mole fraction) (293.15 K)	solubility (mole fraction) (298.15 K)	solubility (mole fraction) (303.15 K)	solubility (mole fraction) (308.15 K)	solubility (mole fraction) (313.15 K)	solubility (mole fraction) (318.15 K)	solubility (mole fraction) (323.15 K)	solubility (mole fraction) (328.15 K)	solubility (mole fraction) (333.15 K)
O=S(=O)([O-])c1ccc2cc(S(=O)(=O)[O-])ccc2c1.[Na+].[Na+]	0.00323	0.00343	0.00366	0.00402	0.00437	0.00478	0.00523	0.00563	0.00611	0.00657	0.0072
O=S(=O)([O-])c1ccc2ccc(S(=O)(=O)[O-])cc2c1.[Na+].[Na+]	0.0128	0.014	0.0159	0.0189	0.0224	0.0268	0.0323	0.0383	0.0473	0.0584	0.075
